Eight compounds from publication PMC5472631 (2017) can be followed below.

Assay [1] relates to Pu24T (c-myc G-quadruplex DNA) (DNA, G4) TGAGGGTGGTGAGGGTGGGGAAGG
In words: ligand fluorescence titration. Conditions: 100 mM KCl, 10 mM potassium phosphate; pH 7.0, 25 °C; site 1 of 2.

Assay [2] has the same test system. In words: ITC. Conditions: 100 mM KCl, 10 mM potassium phosphate; pH 7.0, 25 °C; site 1 of 2.
Assay [3] shares this test system. In words: UV melting at 295 nm. The following applies: 100 mM KCl, 10 mM potassium phosphate; pH 7.0; D/N = 2.0; Tm 70.0 to 80.0 °C.
The test system of assay [4] is c-kit21up (c-kit G-quadruplex DNA) (DNA, G4) CGGGCGGGCGCGAGGGAGGGG
In words: ligand fluorescence titration. The following applies: 100 mM KCl, 10 mM potassium phosphate; pH 7.0, 25 °C.

Assay [5] deals with Tel7, d-(T2AG3T)4 (DNA, G4) TTAGGGT. Nature of the assay: ligand fluorescence titration. Conditions: 70 mM Na+; 25 °C.
The subject of assay [6] is Pu24T (c-myc G-quadruplex DNA) (DNA, G4) TGAGGGTGGTGAGGGTGGGGAAGG
Nature of the assay: NMR solution structure (NOESY, restrained MD). Conditions: 298 K; D/N = 2.0; stacks at 5' and 3' G-tetrads.

In assay [1], `O=c1c(O)c(-c2ccc(O)cc2)oc2cc(O)cc(O)c12` showed a Kd1 of 1.3 µM.
As to `O=c1c(-c2ccc(O)cc2)coc2cc(O)ccc12`, the K1 in assay [2] is reported as 3.34×10^5 ± 1.50 M^-1. In assay [1], this compound showed a Kd1 of 47 µM.
In the same order, the values of `COc1ccc([C@@H]2CC(=O)c3c(O)cc(O[C@@H]4O[C@H](CO[C@@H]5O[C@@H](C)[C@H](O)[C@@H](O)[C@H]5O)[C@@H](O)[C@H](O)[C@H]4O)cc3O2)cc1O` are 7.35×10^5 ± 1.06 M^-1 and 1 µM.
The term ΔTm denotes the shift of the melting midpoint relative to a reference. In the case of `O=c1c(O)c(-c2ccc(O)c(O)c2)oc2cc(O)cc(O)c12`, in assay [2], the K1 is reported as 1.57 × 10^7 ± 2.14 M-1. Further, the ΔTm in assay [3] was 10 °C. The Kd1 in assay [4] came to 1.12 µM; in assay [5] it was 2.13 µM. Moreover, the binding entry in assay [6] was “yes”.
Turning to `O=c1c(-c2ccc(O)cc2)coc2c([C@@H]3O[C@H](CO)[C@@H](O)[C@H](O)[C@H]3O)c(O)ccc12`, the K1 in assay [2] is on record as 1.10×10^4 ± 7.75 M^-1. Also, the Kd1 in assay [1] stood at 88.8 µM.
In the case of `C[C@@H]1O[C@@H](OC[C@H]2O[C@@H](Oc3c(-c4ccc(O)c(O)c4)oc4cc(O)cc(O)c4c3=O)[C@H](O)[C@@H](O)[C@@H]2O)[C@H](O)[C@H](O)[C@H]1O`, the K1 in assay [2] is 7.23 × 10^5 ± 8.60 M-1. This compound registered a Kd1 in assay [1] of 17.1 µM.
The compound `O=c1cc(-c2ccc(O)c(O)c2)oc2cc(O)cc(O)c12` registered a Kd1 in assay [1] of 1.5 µM.
As to `O=c1c(O)c(-c2cc(O)c(O)c(O)c2)oc2cc(O)cc(O)c12`, the K1 in assay [2] was 1.65×10^5 ± 0 M^-1. This compound returned a Kd1 in assay [1] of 1.4 µM.
